According to patent EP4464309A1, “ANTIDANDRUFF COMPOSITION COMPRISING 1-ACETOXYCHAVICOL ACETATE” (Analyticon Discovery GmbH, priority 2023, dated 2024):
Where two headings read alike, the source gives them in different places.

Tests used:
[1] = Chemical stability of 2% solutions of 1-acetoxychavicol acetate on storage, followed by HPLC; assay type: physicochemical
Experimental: 1-acetoxychavicol acetate was dissolved as a 2% solution in water ethanol (70:30), an aqueous shampoo formulation, and in various vegetable oils. […] Table 1 Assessment of stability of 2% solutions of 1-acetoxychavicol acetate in wt.-percent over time

[2] = as above; assay type: physicochemical; conditions: solutions of up to 5 wt.-percent in vegetable oil, e.g. sunflower or rape seed oil; even at higher temperatures
[3] = cited from earlier work

C=CC(OC(C)=O)c1ccc(OC(C)=O)cc1 (centres unmarked) [1-acetoxychavicol acetate]
degradation ([1]; 2% solution in the shampoo formulation): fast degradation
degradation ([1]; 2% solution in vegetable oils, after 20 weeks of storage): no relevant degradation
degradation ([1]; 2% solution in water (water ethanol 70:30)): fast degradation
stability of 2% solutions of 1-acetoxychavicol acetate ([1]; Aq. Ethanol, storage time 0 w): 100 wt.-percent
stability of 2% solutions of 1-acetoxychavicol acetate ([1]; Aq. Ethanol, storage time 1 w): 80 wt.-percent
stability of 2% solutions of 1-acetoxychavicol acetate ([1]; Aq. Ethanol, storage time 2 w): 60 wt.-percent
stability of 2% solutions of 1-acetoxychavicol acetate ([1]; Aq. Ethanol, storage time 3 w): 50 wt.-percent
stability of 2% solutions of 1-acetoxychavicol acetate ([1]; Aq. Ethanol, storage time 4 w): 30 wt.-percent
stability of 2% solutions of 1-acetoxychavicol acetate ([1]; Aq. Ethanol, storage time 5 w): 20 wt.-percent
stability of 2% solutions of 1-acetoxychavicol acetate ([1]; Aq. Ethanol, storage time 6 w): 0 wt.-percent
stability of 2% solutions of 1-acetoxychavicol acetate ([1]; Aq. Ethanol, storage time 7 w): 0 wt.-percent
stability of 2% solutions of 1-acetoxychavicol acetate ([1]; Aq. Ethanol, storage time 8 w): 0 wt.-percent
stability of 2% solutions of 1-acetoxychavicol acetate ([1]; Aq. Ethanol, storage time 9 w): 0 wt.-percent
stability of 2% solutions of 1-acetoxychavicol acetate ([1]; Aq. Ethanol, storage time 10 w): 0 wt.-percent
stability of 2% solutions of 1-acetoxychavicol acetate ([1]; Aq. Ethanol, storage time 15 w): 0 wt.-percent
stability of 2% solutions of 1-acetoxychavicol acetate ([1]; Aq. Ethanol, storage time 20 w): 0 wt.-percent
stability of 2% solutions of 1-acetoxychavicol acetate ([1]; HO Rape seed oil, storage time 0 w): 100 wt.-percent
stability of 2% solutions of 1-acetoxychavicol acetate ([1]; HO Rape seed oil, storage time 1 w): 100 wt.-percent
stability of 2% solutions of 1-acetoxychavicol acetate ([1]; HO Rape seed oil, storage time 2 w): 100 wt.-percent
stability of 2% solutions of 1-acetoxychavicol acetate ([1]; HO Rape seed oil, storage time 3 w): 100 wt.-percent
stability of 2% solutions of 1-acetoxychavicol acetate ([1]; HO Rape seed oil, storage time 4 w): 100 wt.-percent
stability of 2% solutions of 1-acetoxychavicol acetate ([1]; HO Rape seed oil, storage time 5 w): 100 wt.-percent
stability of 2% solutions of 1-acetoxychavicol acetate ([1]; HO Rape seed oil, storage time 6 w): 100 wt.-percent
stability of 2% solutions of 1-acetoxychavicol acetate ([1]; HO Rape seed oil, storage time 7 w): 100 wt.-percent
stability of 2% solutions of 1-acetoxychavicol acetate ([1]; HO Rape seed oil, storage time 8 w): 100 wt.-percent
stability of 2% solutions of 1-acetoxychavicol acetate ([1]; HO Rape seed oil, storage time 9 w): 100 wt.-percent
stability of 2% solutions of 1-acetoxychavicol acetate ([1]; HO Rape seed oil, storage time 10 w): 100 wt.-percent
stability of 2% solutions of 1-acetoxychavicol acetate ([1]; HO Rape seed oil, storage time 15 w): 100 wt.-percent
stability of 2% solutions of 1-acetoxychavicol acetate ([1]; HO Rape seed oil, storage time 20 w): 100 wt.-percent
stability of 2% solutions of 1-acetoxychavicol acetate ([1]; HO Sunflower oil, storage time 0 w): 100 wt.-percent
stability of 2% solutions of 1-acetoxychavicol acetate ([1]; HO Sunflower oil, storage time 1 w): 100 wt.-percent
stability of 2% solutions of 1-acetoxychavicol acetate ([1]; HO Sunflower oil, storage time 2 w): 100 wt.-percent
stability of 2% solutions of 1-acetoxychavicol acetate ([1]; HO Sunflower oil, storage time 3 w): 100 wt.-percent
stability of 2% solutions of 1-acetoxychavicol acetate ([1]; HO Sunflower oil, storage time 4 w): 100 wt.-percent
stability of 2% solutions of 1-acetoxychavicol acetate ([1]; HO Sunflower oil, storage time 5 w): 100 wt.-percent
stability of 2% solutions of 1-acetoxychavicol acetate ([1]; HO Sunflower oil, storage time 6 w): 100 wt.-percent
stability of 2% solutions of 1-acetoxychavicol acetate ([1]; HO Sunflower oil, storage time 7 w): 100 wt.-percent
stability of 2% solutions of 1-acetoxychavicol acetate ([1]; HO Sunflower oil, storage time 8 w): 100 wt.-percent
stability of 2% solutions of 1-acetoxychavicol acetate ([1]; HO Sunflower oil, storage time 9 w): 100 wt.-percent
stability of 2% solutions of 1-acetoxychavicol acetate ([1]; HO Sunflower oil, storage time 10 w): 100 wt.-percent
stability of 2% solutions of 1-acetoxychavicol acetate ([1]; HO Sunflower oil, storage time 15 w): 100 wt.-percent
stability of 2% solutions of 1-acetoxychavicol acetate ([1]; HO Sunflower oil, storage time 20 w): 90 wt.-percent
stability of 2% solutions of 1-acetoxychavicol acetate ([1]; Olive oil, storage time 0 w): 100 wt.-percent
stability of 2% solutions of 1-acetoxychavicol acetate ([1]; Olive oil, storage time 1 w): 100 wt.-percent
stability of 2% solutions of 1-acetoxychavicol acetate ([1]; Olive oil, storage time 2 w): 100 wt.-percent
stability of 2% solutions of 1-acetoxychavicol acetate ([1]; Olive oil, storage time 3 w): 100 wt.-percent
stability of 2% solutions of 1-acetoxychavicol acetate ([1]; Olive oil, storage time 4 w): 100 wt.-percent
stability of 2% solutions of 1-acetoxychavicol acetate ([1]; Olive oil, storage time 5 w): 100 wt.-percent
stability of 2% solutions of 1-acetoxychavicol acetate ([1]; Olive oil, storage time 6 w): 100 wt.-percent
stability of 2% solutions of 1-acetoxychavicol acetate ([1]; Olive oil, storage time 7 w): 95 wt.-percent
stability of 2% solutions of 1-acetoxychavicol acetate ([1]; Olive oil, storage time 8 w): 95 wt.-percent
stability of 2% solutions of 1-acetoxychavicol acetate ([1]; Olive oil, storage time 9 w): 95 wt.-percent
stability of 2% solutions of 1-acetoxychavicol acetate ([1]; Olive oil, storage time 10 w): 90 wt.-percent
stability of 2% solutions of 1-acetoxychavicol acetate ([1]; Olive oil, storage time 15 w): 90 wt.-percent
stability of 2% solutions of 1-acetoxychavicol acetate ([1]; Olive oil, storage time 20 w): 85 wt.-percent
stability of 2% solutions of 1-acetoxychavicol acetate ([1]; Peanut oil, storage time 0 w): 100 wt.-percent
stability of 2% solutions of 1-acetoxychavicol acetate ([1]; Peanut oil, storage time 1 w): 100 wt.-percent
stability of 2% solutions of 1-acetoxychavicol acetate ([1]; Peanut oil, storage time 2 w): 100 wt.-percent
stability of 2% solutions of 1-acetoxychavicol acetate ([1]; Peanut oil, storage time 3 w): 100 wt.-percent
stability of 2% solutions of 1-acetoxychavicol acetate ([1]; Peanut oil, storage time 4 w): 100 wt.-percent
stability of 2% solutions of 1-acetoxychavicol acetate ([1]; Peanut oil, storage time 5 w): 100 wt.-percent
stability of 2% solutions of 1-acetoxychavicol acetate ([1]; Peanut oil, storage time 6 w): 100 wt.-percent
stability of 2% solutions of 1-acetoxychavicol acetate ([1]; Peanut oil, storage time 7 w): 95 wt.-percent
stability of 2% solutions of 1-acetoxychavicol acetate ([1]; Peanut oil, storage time 8 w): 95 wt.-percent
stability of 2% solutions of 1-acetoxychavicol acetate ([1]; Peanut oil, storage time 9 w): 95 wt.-percent
stability of 2% solutions of 1-acetoxychavicol acetate ([1]; Peanut oil, storage time 10 w): 90 wt.-percent
stability of 2% solutions of 1-acetoxychavicol acetate ([1]; Peanut oil, storage time 15 w): 90 wt.-percent
stability of 2% solutions of 1-acetoxychavicol acetate ([1]; Peanut oil, storage time 20 w): 85 wt.-percent
stability of 2% solutions of 1-acetoxychavicol acetate ([1]; Sesame oil, storage time 0 w): 100 wt.-percent
stability of 2% solutions of 1-acetoxychavicol acetate ([1]; Sesame oil, storage time 1 w): 100 wt.-percent
stability of 2% solutions of 1-acetoxychavicol acetate ([1]; Sesame oil, storage time 2 w): 100 wt.-percent
stability of 2% solutions of 1-acetoxychavicol acetate ([1]; Sesame oil, storage time 3 w): 100 wt.-percent
stability of 2% solutions of 1-acetoxychavicol acetate ([1]; Sesame oil, storage time 4 w): 100 wt.-percent
stability of 2% solutions of 1-acetoxychavicol acetate ([1]; Sesame oil, storage time 5 w): 100 wt.-percent
stability of 2% solutions of 1-acetoxychavicol acetate ([1]; Sesame oil, storage time 6 w): 100 wt.-percent
stability of 2% solutions of 1-acetoxychavicol acetate ([1]; Sesame oil, storage time 7 w): 95 wt.-percent
stability of 2% solutions of 1-acetoxychavicol acetate ([1]; Sesame oil, storage time 8 w): 95 wt.-percent
stability of 2% solutions of 1-acetoxychavicol acetate ([1]; Sesame oil, storage time 9 w): 95 wt.-percent
stability of 2% solutions of 1-acetoxychavicol acetate ([1]; Sesame oil, storage time 10 w): 90 wt.-percent
stability of 2% solutions of 1-acetoxychavicol acetate ([1]; Sesame oil, storage time 15 w): 90 wt.-percent
stability of 2% solutions of 1-acetoxychavicol acetate ([1]; Sesame oil, storage time 20 w): 85 wt.-percent
stability of 2% solutions of 1-acetoxychavicol acetate ([1]; Shampoo, storage time 0 w): 100 wt.-percent
stability of 2% solutions of 1-acetoxychavicol acetate ([1]; Shampoo, storage time 1 w): 80 wt.-percent
stability of 2% solutions of 1-acetoxychavicol acetate ([1]; Shampoo, storage time 2 w): 60 wt.-percent
stability of 2% solutions of 1-acetoxychavicol acetate ([1]; Shampoo, storage time 3 w): 55 wt.-percent
stability of 2% solutions of 1-acetoxychavicol acetate ([1]; Shampoo, storage time 4 w): 50 wt.-percent
stability of 2% solutions of 1-acetoxychavicol acetate ([1]; Shampoo, storage time 5 w): 40 wt.-percent
stability of 2% solutions of 1-acetoxychavicol acetate ([1]; Shampoo, storage time 6 w): 35 wt.-percent
stability of 2% solutions of 1-acetoxychavicol acetate ([1]; Shampoo, storage time 7 w): 30 wt.-percent
stability of 2% solutions of 1-acetoxychavicol acetate ([1]; Shampoo, storage time 8 w): 25 wt.-percent
stability of 2% solutions of 1-acetoxychavicol acetate ([1]; Shampoo, storage time 9 w): 20 wt.-percent
stability of 2% solutions of 1-acetoxychavicol acetate ([1]; Shampoo, storage time 10 w): 10 wt.-percent
stability of 2% solutions of 1-acetoxychavicol acetate ([1]; Shampoo, storage time 15 w): 0 wt.-percent
stability of 2% solutions of 1-acetoxychavicol acetate ([1]; Shampoo, storage time 20 w): 0 wt.-percent
stability ([1]; solution in rapeseed oil): particularly stable
stability ([1]; solution in sunflower oil): particularly stable
stability [2]: remains stable over months
stability ([3]; in aqueous solution): instable
time stable ([3]; in vegetable oil, at up to 120°C): at least 1 h
stability ([3]; solution with 30-40% ethanol, neutral pH, room temperature): stable for several month
stability ([3]; under thermal treatment, e.g. distillation): instable
